This is an account of results in ChEMBL document CHEMBL4806958, “Anti-cancer/anti-fibrosis compounds” (2020).

Assay [1] deals with Casein kinase II subunit alpha (Homo sapiens, UniProt P68400). Briefly: Inhibition of CSNK2A1(unknown origin) using Ser/Thr 11 as substrate incubated for 60 mins in presence of ATP by Z'-LYTE assay.
Assay [2] has as its target Homeodomain-interacting protein kinase 2 (Homo sapiens, UniProt Q9H2X6). Briefly: Inhibition of HIPK2 (unknown origin) using Ser/Thr 09 as substrate incubated for 60 mins in presence of ATP by Z'-Lyte assay.

Some results are limits rather than exact numbers.

Chain of Casein kinase II subunit alpha (P68400 whole entry): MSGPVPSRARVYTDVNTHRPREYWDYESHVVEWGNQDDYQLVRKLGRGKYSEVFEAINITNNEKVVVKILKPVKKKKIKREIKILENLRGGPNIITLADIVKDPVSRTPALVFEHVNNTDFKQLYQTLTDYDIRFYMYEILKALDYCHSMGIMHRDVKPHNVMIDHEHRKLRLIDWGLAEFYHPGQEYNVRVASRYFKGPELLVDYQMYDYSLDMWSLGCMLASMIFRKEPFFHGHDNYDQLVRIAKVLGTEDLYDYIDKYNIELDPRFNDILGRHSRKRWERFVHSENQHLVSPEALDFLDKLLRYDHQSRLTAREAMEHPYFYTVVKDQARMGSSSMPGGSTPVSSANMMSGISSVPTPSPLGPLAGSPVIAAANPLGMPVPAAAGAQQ
Chain of Homeodomain-interacting protein kinase 2 (Q9H2X6 whole entry): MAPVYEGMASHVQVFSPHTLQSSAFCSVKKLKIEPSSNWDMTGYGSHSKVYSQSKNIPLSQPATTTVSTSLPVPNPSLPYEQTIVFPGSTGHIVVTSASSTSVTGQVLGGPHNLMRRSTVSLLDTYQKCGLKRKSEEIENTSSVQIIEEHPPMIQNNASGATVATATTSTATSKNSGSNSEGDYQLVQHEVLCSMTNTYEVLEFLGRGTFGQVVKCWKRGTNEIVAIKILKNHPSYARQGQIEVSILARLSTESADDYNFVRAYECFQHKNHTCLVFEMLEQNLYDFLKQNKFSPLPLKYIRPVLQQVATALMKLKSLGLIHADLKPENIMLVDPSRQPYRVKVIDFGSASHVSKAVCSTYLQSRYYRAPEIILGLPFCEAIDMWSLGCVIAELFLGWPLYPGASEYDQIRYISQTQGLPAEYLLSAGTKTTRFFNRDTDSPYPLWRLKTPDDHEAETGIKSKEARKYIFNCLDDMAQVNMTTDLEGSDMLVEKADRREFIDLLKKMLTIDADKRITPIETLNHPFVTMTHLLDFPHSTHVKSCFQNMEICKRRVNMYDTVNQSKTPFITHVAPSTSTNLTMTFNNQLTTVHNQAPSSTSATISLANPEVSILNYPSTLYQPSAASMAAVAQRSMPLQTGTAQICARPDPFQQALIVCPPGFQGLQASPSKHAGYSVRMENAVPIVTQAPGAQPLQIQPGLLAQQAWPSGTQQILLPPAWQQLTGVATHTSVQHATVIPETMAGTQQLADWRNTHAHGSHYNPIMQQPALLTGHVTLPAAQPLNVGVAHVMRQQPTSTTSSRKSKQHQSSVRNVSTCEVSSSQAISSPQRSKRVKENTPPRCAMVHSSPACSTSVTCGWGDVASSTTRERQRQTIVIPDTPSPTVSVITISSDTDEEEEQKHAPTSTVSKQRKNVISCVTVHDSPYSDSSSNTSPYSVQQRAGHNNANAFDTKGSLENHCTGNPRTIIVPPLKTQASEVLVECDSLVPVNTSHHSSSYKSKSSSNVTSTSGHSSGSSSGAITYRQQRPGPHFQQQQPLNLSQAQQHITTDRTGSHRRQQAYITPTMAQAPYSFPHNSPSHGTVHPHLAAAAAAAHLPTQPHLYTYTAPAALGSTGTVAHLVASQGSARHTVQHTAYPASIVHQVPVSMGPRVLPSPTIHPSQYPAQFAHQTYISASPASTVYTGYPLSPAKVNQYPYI

For `N#Cc1cc2cc(C(=O)O)ccc2c2cnccc12`, in assay [1], the IC50 is below 300 nM.
As to `O=C(O)c1ccc2c(c1)cc(-c1cccnc1)c1ccncc12`, the IC50 in assay [1] is below 300 nM.
Same read-out and setting: next, `CC[C@H](C)Nc1cc2cc(C(=O)O)ccc2c2cnccc12`: below 300 nM.
`O=C(O)c1ccc2c(c1)cc(Br)c1ccncc12`: the IC50 in assay [1] and in assay [2] was below 300 nM in each case.
On to `O=C(O)c1ccc2c(c1)cc(NC1CCC1)c1ccncc12`, for which, in assay [1], the concentration for half-maximal inhibition (IC50) is below 300 nM.
The same measure, in the same setting: next, `O=C(O)c1ccc2c(ccc3ccncc32)c1`: below 300 nM.
For `N[C@@H]1CCCN(c2cc3cc(C(=O)O)ccc3c3cnccc23)C1`, the results for the IC50 in assay [1] and in assay [2] were below 300 nM and above 5000 nM, respectively.
For the molecule `O=C(O)c1ccc2c(c1)cc(Nc1ccc(Cl)cc1)c1ccncc12`, the half-maximal inhibitory concentration (IC50) in assay [1] is below 300 nM.
The same measure, in the same setting: next, `O=C(O)c1ccc2c(c1)cc([N+](=O)[O-])c1ccncc12`: below 300 nM.
Turning to `Nc1nccc2cc(Br)c3cc(C(=O)O)ccc3c12`, in assay [2], the IC50 is below 300 nM.
Take `CCC(C)Nc1cc2cc(C(=O)O)ccc2c2cnccc12` (stereo unspecified): in assay [1], the IC50 is below 300 nM.
Consider `CC[C@@H](C)Nc1cc2cc(C(=O)O)ccc2c2cnccc12`, for which the IC50 in assay [1] and in assay [2] was below 300 nM throughout.
As to `Cc1cc2cc(C(=O)O)ccc2c2cnccc12`, the IC50 in assay [1] is below 300 nM.
The same measure, in the same setting: next, `O=C(O)c1ccc2c(c1)cc(N1CCCCC1)c1ccncc12`: below 300 nM; `O=C(O)c1ccc2c(c1)cc(NC1CCCC1)c1ccncc12`: below 300 nM; `O=C(O)c1ccc2c(c1)cc(-c1ccncc1)c1ccncc12`: below 300 nM.
As to `Nc1ccc(-c2cc3cc(C(=O)O)ccc3c3cnccc23)cn1`, the IC50 in assay [1] is below 300 nM.
Take `O=C(O)c1ccc2c(c1)cc(Br)c1cc(Cl)ncc12`: the IC50 in assay [2] is above 5000 nM.
On to `O=C(O)c1ccc2c(c1)cc(NC1CC1)c1ccncc12`, for which the IC50 in assay [1] and in assay [2] was below 300 nM each time.
On to `O=C(O)c1ccc2c(c1)cc(Nc1cccc(Cl)c1)c1ccncc12`, for which the IC50 in assay [1] is below 300 nM.
The same measure, in the same setting: next, `O=C(O)c1ccc2c(c1)cc(-c1cc[nH]n1)c1ccncc12`: below 300 nM; `CC(C)Nc1cc2cc(C(=O)O)ccc2c2cnccc12`: below 300 nM; `O=C(O)c1ccc2c(c1)cc(NC1CCCCC1)c1ccncc12`: below 300 nM.
In the case of `O=C(O)c1ccc2c(c1)cc(Cl)c1ccncc12`, in assay [1], the IC50 was below 300 nM.
In the case of `O=C(O)c1ccc2c(ccc3ccnc(Cl)c32)c1`, the IC50 in assay [1] is below 300 nM.
In the case of `O=C(O)c1ccc2c(c1)cc(Br)c1ccnc(Cl)c12`, the half-maximal inhibitory concentration (IC50) in assay [1] is below 300 nM.
For the molecule `O=C(O)c1ccc2c(c1)cc(C1CC1)c1ccncc12`, the IC50 in assay [1] is below 300 nM.
